Consider 39 molecules from patent publication US6649609B2, “Benzimidazole derivatives and pharmaceutical compositions comprising these compounds” (Neurosearch A/S, priority 1999, dated 2003).

Series [1] relates to clonic convulsions induced by pentylenetetrazol (PTZ). The series is described as follows: PTZ clonic convulsions. In kind it is in vivo. The note with it: female NMRI mice; for ED100: i.v., dose increasing the PTZ threshold to 100 mg PTZ/kg (linear regression); for ptz threshold at 30 mg/kg: test substance 30 mg/kg i.v., PTZ infused after 5 min, vehicle threshold 37-39 mg PTZ/kg. The procedure: The purpose of this test is to show antagonism of clonic convulsions induced by pentylenetetrazol (PTZ). PTZ induces clonic convulsions in mice after i.v. infusion. Antagonism of PTZ-induced convulsions is a measure for the agonistic character of ligands for the benzodiazepine recognition site.
Female NMRI mice (Bomholdtgaard, Ry), 20 g, 6 mice in each group are administered i.v. with vehicle or test substance. After five minutes the PTZ-solution is infused intravenously at a speed of 0.7 ml/minute through a cannula placed in the tail vein. The time from initiation of the infusion to appearance of clonic convulsions is recorded.
The dose of PTZ required for inducing convulsion in each mouse is calculated as PTZ/kg body weight. Means ±sd for each experimental group of 6 mice is calculated. ED100 is calculated by linear regression expressing the dose increasing the PTZ threshold to 100 mg PTZ/kg.
The threshold of vehicle treated controls is in the range of 37-39 mg PTZ/kg. As a control in each series of experiments PTZ is infused into 6 vehicle treated mice.

The target in series [2] is benzodiazepine receptor (GABAA receptor complex), cerebral cortex membranes. The series is described as follows: In vitro inhibition of 3H-flunitrazepam (3H-FNM) binding. The note with it: inhibition of specific 3H-FNM (1 nM) binding, rat cerebral cortex membranes. As for the experimental part:
The GABA recognition site and the benzodiazepine modulatory unit can selectively be labelled with ^3H-muscimol and ^3H-flunitrazepam, respectively.
13A: In vitro inhibition of ^3H-flunitrazepam (^3H-FNM) binding
Preparations are performed at 0-4° C. unless otherwise indicated. Cerebral cortex from male Wistar rats (150-200 g) is homogenised for 5-10 sec in 20 ml Tris-HCl (30 mM, pH 7.4) using an Ultra-Turrax homogeniser. The suspension is centrifuged at 27,000× g for 15 min and the pellet is washed three times with buffer (centrifuged at 27,000× g for 10 min). The washed pellet is homogenized in 20 ml of buffer and incubated on a water bath (37° C.) for 30 min to remove endogenous GABA and then centrifuged for 10 min at 27,000× g. The pellet is then homogenized in buffer and centrifuged for 10 min at 27,000× g. The final pellet is resuspended in 30 ml buffer and the preparation is frozen and stored at −20° C.
The membrane preparation is thawed and centrifuged at 2° C. for 10 min at 27,000× g. The pellet is washed twice with 20 ml 50 mM Tris-citrate, pH 7.1 using an Ultra-Turrax homogeniser and centrifuged for 10 min at 27,000× g. The final pellet is resuspended in 50 mM Tris-citrate, pH 7.1 (500 ml buffer per g of original tissue), and then used for binding assays. Aliquots of 0.5 ml tissue are added to 25 μl of test solution and 25 μl of ^3H-FNM (1 nM, final concentration), mixed and incubated for 40 min at 2° C., Non-specific binding is determined using Clonazepam (1 μM, final concentration). After incubation the samples are added 5 ml of ice-cold buffer and poured directly onto Whatman GFIC glass fibre filters under suction and immediately washed with 5 ml ice-cold buffer. The amount of radioactivity on the filters is determined by conventional liquid scintillation counting. Specific binding is total binding minus non-specific binding.
The test value will be given as IC50 (the concentration (μM) of the test substance which inhibits the specific binding of ^3H-FNM by 50%). [formula]
Co is specific binding in control assays, and
Cx is the specific binding in the test assay.
(The calculations assume normal mass-action kinetics).

Series [3] has as its system GABAA receptor-ion channel complex (forebrain). Description: In vivo inhibition of 3H-FNM binding. Also noted: species or system mouse. The note with it: female NMRI mice, test substance i.v., inhibition of specific [3H]FNM binding in forebrain. As for the experimental part: 13B: In vivo inhibition of ^3H-FNM binding
[^3H]FNM can also be used for in vivo receptor labelling studies in mouse. Accumulation of [^3H]FNM binding will occur all over the brain as GABAA receptors are widely distributed.
All test substances used are solutions prepared in 10% TWEEN 80. Groups of three female NMRI mice (25 g) are injected i.v. via the tail vein with 5.0 μCi of [3H]FNM in 0.2 ml saline. Fifteen min after injection with [^3H]FNM the test substance is administered i.v. Twenty min after injection with [^3H]FNM, mice are killed by decapitation, the forebrains rapidly excised and homogenized in 12 ml of ice-cold 50 mM Tris-citrate, pH 7.1 using an Ultra-Turrax homogenizer. Three aliquots of 1 ml are immediately filtered through GF/C glass fibre filters and washed with 2×5 ml of ice-cold buffer. The amounts of radioactivity on the filters and in 200 μl of the homogenate are determined by conventional scintillation counting. Groups of untreated mice serves as controls. To determine non-specific binding groups of mice are injected with Clonazepam (25 mg/kg) i.p. 10 min before [3H]FNM injection. Specific binding is the amount of binding in controls minus the amount of binding in Clonazepam treated mice.
The ED50 value is determined from dose response curves. […] [formula]
where Co is specific binding in controls and Cx is the specific binding in mice treated with test substance.

Counter-ions that a name gives are not always drawn.

Take `COCCOC(=O)c1ccc2c(c1)ncn2-c1cccc(N2CCN(CC(=O)O)CC2)c1`: the melting point was 105 to 110 °C.

Turning to `CSCCOC(=O)c1ccc2c(c1)ncn2-c1cccc(N2CCN(C)CC2)c1`, the melting point was in the range of 121 to 122 °C.

On to `CN(C)CCOC(=O)c1ccc2c(c1)ncn2-c1cccc(N2CCN(CC(=O)O)CC2)c1`, for which the melting point is 47 °C (dec.).

`COC(=O)c1ccc2c(c1)ncn2-c1cccc(N2CCN(CC#N)CC2)c1` came in with a melting point of 160 to 162 °C.

Consider `COCCOC(=O)c1ccc2c(c1)ncn2-c1cccc(N2CCN(CC#N)CC2)c1`, for which the melting point fell in the range of 91 to 93 °C.

The molecule `CC(C)(C)OC(=O)CN1CCN(c2cccc(-n3cnc4cc(-c5ccoc5)ccc43)c2)CC1` showed a melting point of 131 to 132 °C.

`CCOC(=O)CN1C(C)CN(c2cccc(-n3cnc4cc(C(=O)OCCOC)ccc43)c2)CC1C` (stereo not drawn) (as salt: HCl): the melting point was 90 to 94 °C.

`COCCOC(=O)c1ccc2c(c1)ncn2-c1cccc(-n2cnc(C(=O)OC)c2)c1` (as salt: HCl) yielded a melting point of 132 to 134 °C.

For the molecule `O=C(OCCO)c1ccc2c(c1)ncn2-c1cccc(N2CCN(CCO)CC2)c1` (as salt: HCl), the melting point fell in the range of 182 to 192 °C.

Turning to `CCN1C(C)CN(c2cccc(-n3cnc4cc(C(=O)OCCOC)ccc43)c2)CC1C` (stereo not drawn) (as salt: HCl), the melting point lay in the range of 202 to 208 °C.

Molecule `CCN1CC=C(c2cccc(-n3cnc4cc(C(=O)OCCOC)ccc43)c2)CC1` (as salt: HCl) yielded a melting point of 179 to 180 °C.

`COCCOC(=O)c1ccc2c(c1)ncn2-c1cccc(C2CCN(C)CC2)c1` (as salt: HCl) returned a melting point of 123 to 125 °C.

Take `COCCOC(=O)c1ccc2c(c1)ncn2-c1cccc(C2CCN(C(C)=O)CC2)c1` (as salt: HCl): the melting point was in the range of 139 to 140 °C.

For the molecule `COC(=O)c1ccc2c(c1)ncn2-c1cccc(N2CCNCC2)c1` (as salt: HCl), the melting point lay in the range of 179 to 202 °C.

Regarding `COCCOC(=O)c1ccc2c(c1)ncn2-c1cccc(N2CCN(CC(=O)OC(C)(C)C)CC2)c1` (as salt: HCl), the melting point is 218 to 224 °C.

In turn, `COCCOC(=O)c1ccc2c(c1)ncn2-c1cccc(N2CCNCC2)c1` (as salt: HCl) showed a melting point of 191 to 205 °C.

Consider `COCCOC(=O)c1ccc2c(c1)ncn2-c1cccc(N2CCN(CC(=O)OC(C)C)CC2)c1` (as salt: HCl), for which the melting point was in the range of 155 to 159 °C.

As for `COC(=O)c1ccc2c(c1)ncn2-c1cccc(N2CCN(CC(=O)O)CC2)c1` (as salt: HCl), the melting point was in the range of 210 to 220 °C.

In turn, `COCCOC(=O)c1ccc2c(c1)ncn2-c1cccc(N2CCN(Cc3ccc(Cl)s3)CC2)c1` (as salt: HCl) yielded a melting point of 185 to 186 °C.

Regarding `CN1CCN(c2cccc(-n3cnc4cc(C(=O)OCCO)ccc43)c2)CC1` (as salt: HCl), the melting point was in the range of 128 to 139 °C.

For the molecule `COC(=O)CN1CCN(c2cccc(-n3cnc4cc(C(=O)OCCO)ccc43)c2)CC1` (as salt: HCl), the melting point fell in the range of 150 to 155 °C.

With `CCOC(=O)CN1CCN(c2cccc(-n3cnc4cc(C(=O)OCCO)ccc43)c2)CC1` (as salt: HCl), the melting point fell in the range of 103 to 125 °C.

As for `CCN(CC)C(=O)CN1CCN(c2cccc(-n3cnc4cc(C(=O)OCCOC)ccc43)c2)CC1` (as salt: HCl), the melting point is 202 to 204 °C.

Turning to `COCCOC(=O)c1ccc2c(c1)ncn2-c1cccc(N2CCN(Cc3ccccc3)CC2)c1` (as salt: HCl), the melting point fell in the range of 172 to 177 °C.

Consider `COCCOC(=O)c1ccc2c(c1)ncn2-c1cccc(N2CCN(CC(=O)OC)CC2)c1` (as salt: HCl), for which the melting point lay in the range of 161 to 164 °C.

For the molecule `COCCOC(=O)c1ccc2c(c1)ncn2-c1cccc(N2CCN(CC(N)=O)CC2)c1` (as salt: HCl), the melting point is 211 to 212 °C.

Consider `NC(=O)CN1CCN(c2cccc(-n3cnc4cc(C(=O)OCCO)ccc43)c2)CC1` (as salt: HCl), for which the melting point was 268 to 270 °C.

For the molecule `COC(=O)c1ccc2c(c1)ncn2-c1cccc(N2CCN(Cc3ccccc3)CC2)c1` (as salt: HCl), the melting point was in the range of 153 to 163 °C.

Consider `CCN(CC)C(=O)CN1CCN(c2cccc(-n3cnc4cc(C(=O)OCCO)ccc43)c2)CC1` (as salt: HCl), for which the melting point is 149 to 154 °C.

Consider `COCCOC(=O)c1ccc2c(c1)ncn2-c1cccc(N2CCN(CCOCc3ccccc3)CC2)c1` (as salt: HCl), for which the melting point lay in the range of 139 to 141 °C.

The molecule `COCCOC(=O)c1ccc2c(c1)ncn2-c1cccc(N2CCN(Cc3nnnn3C)CC2)c1` (as salt: HCl) had a melting point of 196 to 198 °C.

On to `CCN1CCN(c2cccc(-n3cnc4cc(C(=O)OCCOC)ccc43)c2)CC1` (as salt: HCl), for which the melting point lay within 166 to 168 °C.

`CCOC(=O)N1CCN(Cc2cccc(-n3cnc4cc(-c5ccoc5)ccc43)c2)CC1` (as salt: HCl): the melting point was in the range of 248 to 250 °C.

On to `CN1CCCC1COC(=O)c1cccc(-n2cnc3cc(-c4ccoc4)ccc32)c1` (stereo not drawn) (as salt: HCl), for which the melting point was in the range of 198 to 200 °C.

In turn, `CCOC(=O)CN1CCN(c2cccc(-n3cnc4cc(C(=O)OCCOC)ccc43)c2)CC1` (as salt: HCl) [Compound 1b, 2-Methoxyethyl 1-(3-(4-(ethoxy-carbonyl-methyl)-1-piperazinyl)-phenyl)-benzimidazole-5-carboxylate] gave a melting point of 161 to 163 °C.

The molecule `CC(=O)N1CCN(CCOC(=O)c2cccc(-n3cnc4cc(-c5ccoc5)ccc43)c2)CC1` (as salt: HCl) [Compound 7j, 2-(1-Acetyl-4-piperazinyl)-ethyl 3-(5-(3-furanyl)-1-benzimidazolyl)-benzoate] yielded a melting point of 167 to 168 °C.

For `COCCOC(=O)c1ccc2c(c1)ncn2-c1cccc(N2CCN(C)CC2)c1` (as salt: maleate), the melting point lay within 136 to 137 °C.

`COC(=O)c1ccc2c(c1)ncn2-c1cccc(Cn2ccnc2)c1` [Compound 1l, Methyl 1-(3-(1-imidazolylmethyl)-phenyl)-benzimidazole-5-carboxylate]: in series [1], the ED100 was 17 mg/kg and the “ptz threshold at 30 mg/kg” value is given as 120 mg/kg. For the same molecule, the IC50 in series [2] turned out to be 12 nM. Besides, in series [3], the “In vivo binding ED50” value is recorded as 0.75 mg/kg.

Turning to `CCOC(=O)CN1CCN(Cc2cccc(-n3cnc4cc(-c5ccoc5)ccc43)c2)CC1` [Compound 7f, 5-(3-Furanyl)-1-(3-(1-ethoxycarbonylmethyl-4-piperazinylmethyl)-phenyl)-benzimidazole], in series [1], the ED100 came to 2.7 mg/kg and the “ptz threshold at 30 mg/kg” value worked out at 120 mg/kg. This molecule showed an IC50 in series [2] of 0.6 nM. The “In vivo binding ED50” value in series [3] was determined as 0.17 mg/kg.

By melting point is commonly meant the temperature of the solid-liquid transition. The IC50 is the midpoint of a concentration-inhibition curve.
